These results are taken from US8592590B2, “Tetrahydrotriazolopyridine compounds as selective MGLU5 receptor potentiators useful for the treatment of schizophrenia” (Eli Lilly and Company, priority 2009, dated 2013).

One test addresses T1, human mGlu5 receptor (Homo sapiens, UniProt P41594).
T1 construct: expressed in transfected cells
Description: Functional in vitro activity at human mGlu5 receptor (FLIPR calcium, potentiator mode). It is filed as cell-based. The following applies: AV-12 cells expressing human mGlu5, glutamate EC10, relative EC50. The procedure:
An AV-12 cell line stably expressing the human mGlu5 receptor and co-transfected with the rat glutamate transporter EAAT 1 (Excitatory Amino Acid Transporter 1) are used for these studies (see for example Desai, Burnett, Mayne, Schoepp, Mol. Pharmacol. 48, 648-657, 1995). The cell line is maintained by culturing in Dulbecco's Modified Eagle's Medium (DMEM) with high glucose and pyridoxine hydrochloride supplemented with 5% heat inactivated, dialyzed fetal bovine serum, 1 mM sodium pyruvate, 10 mM HEPES (4-(2-hydroxyethyl)-1-piperazineethanesulfonic acid), 1 mM of L-glutamine, 0.75 mg/ml geneticin and 0.3 mg/ml hygromycin. Sub-confluent cultures are passaged twice per week using 0.25% trypsin-EDTA. […]
Intracellular calcium levels are monitored before and after the addition of compounds using a Fluorometric Imaging Plate Reader (FLIPR, Molecular Devices, Union City, Calif. USA). […] The results are analyzed using (GraphPad® Prism v4, Graphpad Software, LaJolla, Calif., USA) to calculate the concentrations of glutamate needed to induce the EC10 responses.
Compounds are tested in a two-addition FLIPR assay using a 10-point concentration response profile starting at a final concentration of 25 μM (agonist mode) or 12.5 μM (potentiator mode). […] After taking an initial 5-sec fluorescent read on the FLIPR instrument, compound is added to the cell plate (50 ul per well). […]

The next test relates to Male Lister hooded rats. Description: Delayed matching to position task (DMTP) in rats, deficit induced by NMDA antagonist SDZ 220,581. Format: in vivo, rat. An excerpt:
The delayed matching to position task (DMTP) has been used to study working memory in rats. Working memory in this context is the retention and use of information that is available only during an individual trial. The study of compounds which modulate NMDA receptors in DMTP has been used to identify the importance of NMDA receptors in learning and memory. More specifically, studies have shown competitive NMDA antagonists to induce impairment of DMTP in rats. Compounds which show a positive effect in attenuating deficits induced by competitive NMDA antagonists in rats are believed to be useful in treating cognitive disorders in humans.
Male Lister hooded rats are housed in groups of 4 and are maintained on a food-restricted diet and a 12-hour light dark cycle. The experiments are conducted during the same part of the light phase each day.
Standard operant chambers, housed in sound and light attenuating chambers are used. Each chamber comprised a house light, two retractable levers, each with a stimulus light above it. The levers are located either side of a recessed magazine where food pellets are delivered from an automatic pellet dispenser. Start of a session is signaled by onset of the house light, and its permanent offset indicated the end of a session. Experimental sessions are controlled and data is recorded and analyzed.
Sample Phase. A trial begins with a one of the levers extending into the chamber. The stimulus light above the lever is illuminated. If the lever is pressed, it is retracted and the stimulus light extinguished. This initiates the pseudo-randomly selected delay period of 1, 2, 4, 8 or 16 seconds during training or 1, 12, or 32 seconds during test.
Head Entry. After this delay period is complete, animals are required to make a head entry into the food hopper within 10 seconds, if an appropriate response is made both levers are extended into the chamber. If no response is made during this period, the house-light is extinguished and the trial counted as an omission.
Choice Phase. If animals make the appropriate head entry response and the levers extended into the operant chamber, they have 10 seconds which to make their response. A correct response consists of an animal pressing the same lever that is extended into the chamber during the sample phase. This response results in both levers retracting and a single food pellet being delivered into the food hopper. After a 5 second inter-trial interval the next trial begins. Following an incorrect response, (the animal pressing the opposite lever as had been extended during the sample phase), both levers retract and the house-light is extinguished signaling the end of that trial. After a 5 second time out the next trial begins, signaled by onset of the house-light. If the animal fails to respond within 10 second during the choice phase, the levers retract, the house-light extinguishes and the trial is recorded as an omission.
Overall Session. Each session is terminated after 75 trials (15 pseudo-random presentations of each delay period). Animals are trained to a criterion of greater than 70% accuracy over the entire session with less than 10% omissions of responding. After criterion is reached, rats are trained two times a week in a baseline condition and once a week in a test condition.
Test Compounds. A compound of the present invention stock of 1.0 mg/ml is prepared. For example, 18.7 mg of the compound of Example 11 is weighed and suspended in 18.7 ml vehicle (1% high viscocity cmc, 0.25% tween, 0.05% antifoam). A white suspension is formed. Test compound is administered orally, 60 minutes prior to the start of a session, in a volume of 1 ml/kg.
NMDA antagonist stock, 2.0 mg/ml: […] of SDZ 220,581 is weighed and dissolved in 16.73 ml vehicle (0.09 ml 1M NaOH, made up to volume with 5% glucose). A solution is formed and at a pH 6.5 at time of injection. SDZ 220,581 is administered subcutaneously, 30 minutes prior to the start of a session, in a volume of 1 ml/kg. […]

Setting [1] is: Example 11/V: Example 11 1 mg/kg orally 60 min prior, vehicle instead of SDZ.

T1 sequence (P41594 21-1212): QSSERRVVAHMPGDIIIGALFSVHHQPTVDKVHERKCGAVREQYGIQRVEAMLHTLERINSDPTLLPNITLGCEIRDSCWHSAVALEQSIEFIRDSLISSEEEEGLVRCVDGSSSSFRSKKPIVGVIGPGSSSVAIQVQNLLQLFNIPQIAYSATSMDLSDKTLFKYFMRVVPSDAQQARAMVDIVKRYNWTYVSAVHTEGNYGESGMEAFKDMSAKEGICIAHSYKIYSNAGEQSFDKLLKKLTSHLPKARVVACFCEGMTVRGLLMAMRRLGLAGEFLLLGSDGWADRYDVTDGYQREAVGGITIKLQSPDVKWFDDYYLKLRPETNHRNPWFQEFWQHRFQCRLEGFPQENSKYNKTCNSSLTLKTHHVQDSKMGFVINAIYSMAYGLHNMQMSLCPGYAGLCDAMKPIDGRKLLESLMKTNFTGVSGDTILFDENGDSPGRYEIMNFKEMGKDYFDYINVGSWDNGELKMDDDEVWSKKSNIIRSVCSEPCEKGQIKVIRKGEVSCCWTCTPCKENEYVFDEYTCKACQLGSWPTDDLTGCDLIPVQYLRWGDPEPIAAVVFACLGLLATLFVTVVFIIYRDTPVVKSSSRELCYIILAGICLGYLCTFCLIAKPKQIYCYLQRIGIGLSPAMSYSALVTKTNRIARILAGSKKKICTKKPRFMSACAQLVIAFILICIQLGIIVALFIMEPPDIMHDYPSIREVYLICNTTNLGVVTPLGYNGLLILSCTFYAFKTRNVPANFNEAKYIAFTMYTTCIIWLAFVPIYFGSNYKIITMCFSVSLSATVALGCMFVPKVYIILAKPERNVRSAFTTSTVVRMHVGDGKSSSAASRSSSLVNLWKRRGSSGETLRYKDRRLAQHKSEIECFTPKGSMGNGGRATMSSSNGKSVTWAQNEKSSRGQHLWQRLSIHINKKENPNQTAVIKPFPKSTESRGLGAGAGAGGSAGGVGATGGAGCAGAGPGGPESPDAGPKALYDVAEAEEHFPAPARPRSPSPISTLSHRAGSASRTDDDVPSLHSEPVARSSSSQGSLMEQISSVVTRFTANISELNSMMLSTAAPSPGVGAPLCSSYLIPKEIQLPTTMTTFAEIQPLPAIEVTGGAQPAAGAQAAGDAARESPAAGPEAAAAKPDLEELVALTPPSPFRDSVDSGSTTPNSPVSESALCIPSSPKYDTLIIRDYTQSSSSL

Turning to `CC(C)(C)c1nnc2n1CCC(c1nc(-c3ccc(F)cc3)no1)C2` (racemic) [Example 1, 3-tert-butyl-7-[3-(4-fluorophenyl)-1,2,4-oxadiazol-5-yl]-5,6,7,8-tetrahydro[1,2,4]triazolo[4,3-a]pyridine], at human mGlu5 receptor, the EC50 (in general, the concentration needed to bring the measured effect to its halfway point) came out at 0.12 ± 0.047 µM.

Consider `CC(C)(C)c1nnc2n1CC[C@H](c1nc(-c3ccc(F)cc3)no1)C2` (single isomer, unassigned) [Example 11], for which the “Trials Completed” value with Male Lister hooded rats (Example 11/SDZ: Example 11 1 mg/kg orally 60 min prior plus SDZ 220,581 subcutaneously 30 min prior) turned out to be 72 ± 2. Besides, in the test with Male Lister hooded rats (setting [1]), the “% Accuracy” value was 75.6 ± 1.6%, the “% Omissions” value came out at 1.2 ± 0.4%, the “Average Correct latency” value stood at 0.94 ± 0.05 s and the “Average Incorrect latency” value worked out at 0.98 ± 0.08 s. In the test with Male Lister hooded rats (setting [1]), the “Head Entries” value was 2092 ± 83, the “Sample latency” value stood at 1.84 ± 0.22 s and the “Trials Completed” value was 75 ± 0. Further, the “deficits induced by SDZ-220,581 in the delayed matching to position assay of working memory” value with Male Lister hooded rats (concurrent treatment with 1 mg/kg Example 11) was “attenuated all deficits”. The EC50 at human mGlu5 receptor came to 0.036 ± 0.0035 µM.
